We go through 1 substance from publication doi:10.1101/2025.03.20.644389, “In vivo validation of the palmitoylation cycle as a therapeutic target in NRAS-mutant cancer” (bioRxiv, 2025).

The experiment deals with T1, ABHD17B (Homo sapiens, UniProt Q5VST6).
T1 construct: hABHD17B recombinantly expressed in HEK293T cells (membrane proteome)
T1 sequence (Q5VST6 1-288): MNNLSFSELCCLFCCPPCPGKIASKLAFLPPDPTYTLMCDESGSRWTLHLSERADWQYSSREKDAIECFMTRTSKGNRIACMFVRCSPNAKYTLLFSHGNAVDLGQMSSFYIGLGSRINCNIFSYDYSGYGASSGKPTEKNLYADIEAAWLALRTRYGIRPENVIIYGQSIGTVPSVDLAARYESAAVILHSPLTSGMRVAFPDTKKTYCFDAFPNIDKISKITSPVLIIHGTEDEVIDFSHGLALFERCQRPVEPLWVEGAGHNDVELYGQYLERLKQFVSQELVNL
The experiment can be described thus: competitive gel-based ABPP with FP-Rh in transfected HEK293T membrane proteome. Format: biochemical.

For orientation: IC50 means the midpoint of a concentration-inhibition curve. Low values mean higher potency, high ones lower potency. On to ABD778, for which the IC50 was found to be 76 nM.
